Test results from patent publication US20090048301A1 (IMCLONE SYSTEMS INCORPORATED, priority 2003, published 2009).

How the values were obtained:
bovine tubulin = experiment: In vitro tubulin polymerization assay (turbidity at 340 nm); assay type: biochemical; settings: 10 μM compound, 30 minute data point, vs 1% DMSO control
Outline: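 Percent inhibition derives from turbidity (340 nm) at 30 min relative to 1% DMSO controls, read every minute at 37° C. Polymerization mix: 3 mg/ml bovine tubulin, <3% MAPs, in PIPES pH 7 G-PEM with 1 mM GTP, 1 mM MgCl2, 5% glycerol; enhancers also detectable.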

[1] = system: A431, human epidermoid carcinoma cells; experiment: Cell cycle analysis (FACS), mitotic arrest in G2/M; assay type: cell-based; settings: Homo sapiens, A-431, 24 h, read-out: FACS Assay: concentration required to achieve inhibition in FACS assay
Outline: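 A431 cells, 500,000/well at treatment, exposed to compounds at 0.01–1 μM final (0.1% DMSO) for 24 h. Ethanol-fixed cells RNase-treated (1 μg/ml, 37° C., 15 min), stained with propidium iodide (50 μg/ml, 30 min, RT). DNA ploidy by flow cytometry; mitotic arrest scored as G2/M accumulation.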

[2] = system: A431 human cancer cell line; experiment: Sulphorhodamine B (SRB) growth inhibition assay; assay type: cell-based; settings: A-431, A431 cells, 48 hours, read-out: SRB Assay: μM required to inhibit tumor cell growth by 50% (GI50)
Description: The in vitro growth inhibition activity of the compounds was determined by the Sulphorhodamine B assay. (Skehan P, Storeng R, Scudiero D, Monks A, McMahon J, Vistica D, Warren J T, Bokesch H, Kenney S, Boyd M R. New colorimetric cytotoxicity assay for anticancer-drug screening. J Natl Cancer Inst 82, 1107-1112, 1990). Sulphorhodamine B binds to basic amino acids and stains proteins which can be eluted and detected spectrophotometically by measuring absorbance at 515 nm. The absorbance was indicative of the total protein content of the cells fixed to the walls of the plate well at a given time by trichloroacetic acid, which is a measure of the viable cell concentration.
The in vitro growth inhibition activity of the compounds was determined using a Sulphorhodamine B assay. See, Skehan et al., “New colorimetric cytotoxicity assay for anticancer-drug screening,” J. Natl. Cancer Inst., 82, 1107-1112, (1990). Sulphorhodamine B binds to basic amino acids and stains proteins which can be eluted and detected spectrophotometically by measuring absorbance at 515 nm. The absorbance indicates the total protein content of the cells fixed to the walls of the plate well at a given time by trichloroacetic acid, which is a measure of the viable cell concentration.
The reagents used in the assay can be purchased from commercial sources and include Sulphorhodamine B 0.4% (w/v) in 1% (v/v) acetic acid (Sigma Cat#S-1402); trichloroacetic acid 50% (w/v) in deionized water, working solution (Sigma Cat#T-9159); and trizma base (Tris) 10 mM working solution, pH 7.5 (Sigma Cat#T-7693).
The procedure was cared out over four days. In Day 1, the cells were seeded in a seed 10,000 cells/100 μL/well in 96 well plate in duplicates as per template. Also, seed cells in extra plate for time zero (To plate). Thereafter, the cells were incubated for 24 hours at 37° C. with 5% CO2.
On Day 2, the test compound was added to the cells at five log doses from 100 μM to 0.01 μM (Volume of addition=100 μL in 1% DMSO for all compound concentrations, Control treatment=1% DMSO).
The compounds were prepared by weighing the test compounds in 1.5 ml eppendorf tubes and calculating the volume of DMSO to be added to bring the concentration of the compound to 20 mM. Thereafter, a 20 mM stock was made and diluted by four 10 fold dilutions in DMSO to get 2, 0.2, 0.02 and 0.002 mM solutions. Each solution was diluted 100 times (10 μL to 1 ml medium) and a further addition to the culture plate (100 μL) to half the concentration of cells was made. The final well concentration for 20 mM stock was 100 μM and similarly with other test concentrations.
The cells were incubated for 48 hours at 37° C. with 5% CO2 and terminated by adding 50 μL of 50% cold trichloroacetic acid (10% to final). Thereafter, the cells were incubated for one hour at 4° C.
On Day 4, the cells were fixed to the wells by the addition of 50 μL of 50% cold trichloroacetic acid (10% to final) and incubated for 1 hour at 4° C. The supernatant was discarded by force inverting the plate into the sink followed by washing thrice with tap water and the plates are then air-dried. 100 μL SRB (0.4% in 1% acetic acid) was added to each well and the plates were incubated for 10 minutes at room temperature. Unbound dye was removed by force inverting the plate into the sink and washing thrice with 1% acetic acid. Thereafter, the plates were allowed to air dry.
Bound SRB was solubilized with 100 μL of 10 mM Tris, pH 7.4 and the absorbance was measured at a wavelength of 515 nm.
A sample set of calculations was performed as follows. The percentage growth was calculated by T-To/C-To X 100 if T>To and T-To/To X 100 if T<To, wherein T is Test OD (with compound), C is Control OD, To is Time Zero OD (cell growth at the time of drug addition). […]

Structure (SMILES)	GI50 [2] [µM]	Tubulin Assay: percent inhibition at 10 μM based on 30 minute data (bovine tubulin) [%]	minimal effective concentration [1] [µM]
CN(C)c1ccc(Nc2nnc(-c3cccnc3Nc3ccc4cn[nH]c4c3)[nH]2)cc1 [Compound 21, (1H-Indazol-6-yl)-{3-[5-(4-dimethylamino-phenylamino)-4H-[1,2,4]triazol-3-yl]-pyridin-2-yl}-amine]	40	24	100
COc1cc(Nc2ncccc2-c2nnc(Nc3ccc4c(c3)OCO4)[nH]2)cc(OC)c1 [Compound 30, {3-[5-(Benzo[1,3]dioxol-5-ylamino)-4H-[1,2,4]triazol-3-yl]-pyridin-2-yl}-(3,5-dimethoxy-phenyl)-amine]	0.01	87	0.1
CS(=O)(=O)c1ccc(-c2nnc(-c3cccnc3NCc3ccc4c(c3)OCO4)[nH]2)cc1 [Compound 77, Benzo[1,3]dioxol-5-ylmethyl-{3-[5-(4-methanesulfonyl-phenyl)-4H-[1,2,4]triazol-3-yl]-pyridin-2-yl}-amine]	4.5	28	10
COc1ccc(-c2nnc(-c3cccnc3NCc3ccc4c(c3)OCO4)[nH]2)cc1OC [Compound 78, Benzo[1,3]dioxol-5-ylmethyl-{3-[5-(3,4-dimethoxy-phenyl)-4H-[1,2,4]triazol-3-yl]-pyridin-2-yl}-amine]	3	55	1
CS(=O)(=O)c1ccc(-c2nnc(-c3ccccc3NCc3ccncc3)[nH]2)cc1 [Compound 129]	0.025	84	0.1
C#Cc1ccc(-c2nnc(-c3ccccc3NCc3ccncc3)[nH]2)cc1 [Compound 131, {2-[5-(4-Ethynyl-phenyl)-4H-[1,2,4]triazol-3-yl]-phenyl}-pyridin-4-ylmethyl-amine]	0.06	46	0.1
COc1cccc(Nc2nnc(-c3cccnc3Nc3cc(OC)cc(OC)c3)o2)c1 [Compound 176, (3,5-Dimethoxy-phenyl)-{3-[5-(3-methoxy-phenylamino)-[1,3,4]oxadiazol-2-yl]-pyridin-2-yl}-amine]	40	27	10
COc1cc(Nc2ncccc2-c2nnc(Nc3ccc4c(c3)OCO4)o2)cc(OC)c1 [Compound 177, {3-[5-(Benzo[1,3]dioxol-5-ylamino)-[1,3,4]oxadiazol-2-yl]-pyridin-2-yl}-(3,5-dimethoxy-phenyl)-amine]	0.04	45	0.01

Further lines, with some results ahead:

GI50 [2] [µM]	Structure (SMILES)	Tubulin Assay: percent inhibition at 10 μM based on 30 minute data (bovine tubulin) [%]	minimal effective concentration [1] [µM]
20	COc1ccc(OC)c(Nc2nnc(-c3cccnc3NCc3ccc4c(c3)OCO4)[nH]2)c1 [Compound 14, Benzo[1,3]dioxol-5-ylmethyl-{3-[5-(2,5-dimethoxy-phenylamino)-4H-[1,2,4]triazol-3-yl]-pyridin-2-yl}-amine]	24	100
0.2	CN(C)c1ccc(Nc2nnc(-c3cccnc3NCc3ccc4c(c3)OCO4)[nH]2)cc1 [Compound 15, Benzo[1,3]dioxol-5-ylmethyl-{3-[5-(4-dimethylamino-phenylamino)-4H-[1,2,4]triazol-3-yl]-pyridin-2-yl}-amine]	20	100
4	COc1ccc(Nc2nnc(-c3cccnc3NCc3ccc4c(c3)OCO4)[nH]2)c(OC)c1 [Compound 17, Benzo[1,3]dioxol-5-ylmethyl-{3-[5-(2,4-dimethoxy-phenylamino)-4H-[1,2,4]triazol-3-yl]-pyridin-2-yl}-amine]	80	10
1.5	COc1cccc(Nc2nnc(-c3cccnc3Nc3ccc4cn[nH]c4c3)[nH]2)c1 [Compound 18, (1H-Indazol-6-yl)-{3-[5-(3-methoxy-phenylamino)-4H-[1,2,4]triazol-3-yl]-pyridin-2-yl}-amine]	70	1
0.9	COc1ccc(OC)c(Nc2nnc(-c3cccnc3Nc3ccc4cn[nH]c4c3)[nH]2)c1 [Compound 20, {3-[5-(2,5-Dimethoxy-phenylamino)-4H-[1,2,4]triazol-3-yl]-pyridin-2-yl}-(1H-indazol-6-yl)-amine]	44	10
0.5	COc1cccc(Nc2nnc(-c3cccnc3NCc3cccnc3)[nH]2)c1 [Compound 25, {3-[5-(3-Methoxy-phenylamino)-4H-[1,2,4]triazol-3-yl]-pyridin-2-yl}-pyridin-3-ylmethyl-amine]	77	1
0.25	c1cncc(CNc2ncccc2-c2nnc(Nc3ccc4c(c3)OCO4)[nH]2)c1 [Compound 31, {3-[5-(Benzo[1,3]dioxol-5-ylamino)-4H-[1,2,4]triazol-3-yl]-pyridin-2-yl}-pyridin-3-ylmethyl-amine]	49	1
7.5	COc1ccc(Nc2nnc(-c3cccnc3NCc3ccc4c(c3)OCO4)[nH]2)cc1 [Compound 54, Benzo[1,3]dioxol-5-ylmethyl-{3-[5-(4-methoxy-phenylamino)-4H-[1,2,4]triazol-3-yl]-pyridin-2-yl}-amine]	38	10
8	COc1cccc(-c2nnc(-c3cccnc3NCc3cccnc3)[nH]2)c1 [Compound 85, {3-[5-(3-Methoxy-phenyl)-4H-[1,2,4]triazol-3-yl]-pyridin-2-yl}-pyridin-3-ylmethyl-amine]	61	1
1.2	COc1ccc(-c2nnc(-c3cccnc3NCc3cccnc3)[nH]2)cc1OC [Compound 88, {3-[5-(3,4-Dimethoxy-phenyl)-4H-[1,2,4]triazol-3-yl]-pyridin-2-yl}-pyridin-3-ylmethyl-amine]	29	10
1.5	COc1cccc(Nc2nnc(-c3ccccc3NCc3ccncc3)[nH]2)c1 [Compound 115, (3-Methoxy-phenyl)-(5-{2-[(pyridin-4-ylmethyl)-amino]-phenyl}-4H-[1,2,4]triazol-3-yl)-amine]	79	1
